35 molecules from patent publication US8735387B2, “Oxazolopyrimidines as Edg-1 receptor agonists” (Sanofi, priority 2008, dated 2014) can be followed below.

T1 sequence (P21453 whole entry): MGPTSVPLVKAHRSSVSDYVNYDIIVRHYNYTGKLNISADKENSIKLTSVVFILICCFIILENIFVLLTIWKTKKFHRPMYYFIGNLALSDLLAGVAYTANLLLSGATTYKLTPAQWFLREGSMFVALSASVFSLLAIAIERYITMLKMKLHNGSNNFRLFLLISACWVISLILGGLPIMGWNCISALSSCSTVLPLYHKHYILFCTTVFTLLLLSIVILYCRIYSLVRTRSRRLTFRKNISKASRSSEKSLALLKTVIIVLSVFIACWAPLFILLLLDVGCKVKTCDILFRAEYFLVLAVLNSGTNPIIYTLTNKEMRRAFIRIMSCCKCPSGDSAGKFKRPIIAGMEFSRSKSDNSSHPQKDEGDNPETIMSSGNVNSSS

One test concerns the target T1, human Edg-1 receptor (Homo sapiens, UniProt P21453).
T1 construct: expressed in transfected cells; membrane preparation
Put plainly: GTP-γ-S assay using human Edg-1 receptors (scintillation proximity assay, membrane preparation from CHO Flp-In cell line). Type of test: biochemical. To be noted: example compound at 10 μM; relative to 10 μM S1P; GTP-γ-S SPA, human Edg-1 membranes. The source says: Determination of the Pharmacological Activity A) GTP-γ-S Assay Using Human Edg-1 Receptors
In order to determine the Edg-1 receptor activation by the compounds of the invention, a GTP-γ-S (guanosine 5′-[γ-thio]triphosphate) assay for G-protein coupled receptor binding based on the scintillation proximity assay principle was used, employing a cell membrane preparation from a CHO Flp-In cell line which constitutively overexpresses the human Edg-1 receptor.
The Flp-In™ expression system (Invitrogen, cat. no. K6010-01) allows the generation of stable mammalian cell lines into which the gene of interest has been integrated through homologous recombination at a specific genomic location called Flp Recombination Target (FRT) site by means of a Flp recombinase encoded by the pOG44 expression plasmid. The integration of the pcDNA5/FRT expression construct into the Flp-In host cell line genome results in the transcription of the gene of interest. The stably transfected cells become hygromycin-resistant.
One day prior to transfection, 200 000 Flp-In-CHO cells were seeded in Ham F-12 medium (Invitrogen, cat. no. 31765) supplemented with 10% fetal calf serum (FCS; Perbio Science, cat. no. SH30068.03) in a 6-well plate and incubated at 37° C./5% CO2 overnight. Using the FuGENE® 6 transfection reagent (Roche, cat. no. 11988387001), cells were cotransfected with the Flp recombinase expression plasmid pOG44 and a modified plasmid additionally containing the edg-1 gene (accession no. NM_001400) termed as pcDNA5-FRT-TO_nFLAG_DEST-EDG-1 with a 9:1 ratio. To obtain the modified pcDNA5-FRT-TO_nFLAG_DEST plasmid, the Invitrogen plasmid pcDNA5/FRT/TO (Invitrogen, cat. no. V6520-20) was adapted to the Gateway® (Invitrogen) cloning system by inserting a Gateway cassette containing attR recombination sites flanking a ccdB gene and a chloramphenicol-resistance gene (Gateway conversion system, Invitrogen, cat. no. 11828-029). In addition a FLAG tag epitope was added before the 5′ att recombination site to allow recombinant expression of N-terminally FLAG-tagged proteins.
For the transfection of one well, 1.08 μg of pOG44 and 0.12 μg of pcDNA5-FRT-TO_nFLAG_DEST-EDG-1 were mixed to 100 μl of serum-free Ham F-12 medium containing 6 μl of FuGENE® 6 transfection reagent. After 20 min of incubation, the transfection reagent/DNA complex was distributed dropwise on the cells. The cells were incubated for 24 h at 37° C. Then the cells from 3 wells each were transferred to a T75 flask (Greiner Cellstar®, cat. no. 658175) containing Ham F-12 medium supplemented with 10% of FCS but without antibiotic and were incubated another 24 h. 48 h after transfection, the medium was replaced by selection medium (Ham F-12 supplemented with 10% of FCS and 300 μg/ml of hygromycin B (Invitrogen, cat. no. 10687-010)). The medium was exchanged every 2 to 3 days until a resistant population of cells had grown. […] After 2 weeks of selection, the cells were transferred into T175 flasks (Greiner Cellstar®, cat. no. 660175) and cultivated for batch production. Cells were harvested from the culture flasks by short treatment (2 to 5 min) with Accutase (PAA, cat. no. L11-007), resuspended in selection medium (see above) and centrifuged at 200×g for 5 min. Cells were resuspended in a mixture of 90% of FCS and 10% of dimethylsulfoxide and stored frozen in liquid nitrogen.
A membrane preparation was obtained by standard methods from the afore-described CHO Flp-In cell line constitutively overexpressing the human Edg-1 receptor. Briefly, the cryopreserved cells were taken in culture and grown until confluency in T175 cell culture flasks (Becton Dickinson, cat. no. 35 5001). […]
For orientation: SPA uses beads or plates that emit light when radiolabelled molecules are held near them.
`CCCOc1nc(CCc2ccc(Cl)cc2)nc2oc(-c3cccc(F)c3)nc12` [Example 6]: the “% Activation (Edg-1 receptor activation in percent of the activation by 10 μM S1P)” value is given as 60%.

As to `Fc1cccc(-c2nc3c(OCC4CC4)nc(CCc4ccc(Cl)cc4)nc3o2)c1` [Example 7], the “% Activation (Edg-1 receptor activation in percent of the activation by 10 μM S1P)” value stood at 23%.

For the molecule `CCCOc1nc(C(C)c2ccccc2)nc2oc(-c3cccc(F)c3)nc12` (centres unmarked) [Example 14], the “% Activation (Edg-1 receptor activation in percent of the activation by 10 μM S1P)” value is 97%.

With `Cc1cccc(-c2nc3c(OCC4CC4)nc(C(C)c4ccccc4)nc3o2)c1` (centres unmarked) [Example 16], the “% Activation (Edg-1 receptor activation in percent of the activation by 10 μM S1P)” value is on record as 106%.

As to `CCCOc1nc(CN2CCC(F)(F)CC2)nc2oc(-c3cc(F)ccc3Cl)nc12` [Example 22], the “% Activation (Edg-1 receptor activation in percent of the activation by 10 μM S1P)” value stood at 95%.

On to `CCCOc1nc(CN2CCCOCC2)nc2oc(-c3cc(F)ccc3Cl)nc12` [Example 23], for which the “% Activation (Edg-1 receptor activation in percent of the activation by 10 μM S1P)” value is on record as 97%.

As to `CCCOc1nc(CN2CCOCC2)nc2oc(-c3cc(F)cc(F)c3)nc12` [Example 24], the “% Activation (Edg-1 receptor activation in percent of the activation by 10 μM S1P)” value amounted to 115%.

For the molecule `CCCOc1nc(CN2CCC(F)(F)CC2)nc2oc(-c3cc(F)cc(F)c3)nc12` [Example 25], the “% Activation (Edg-1 receptor activation in percent of the activation by 10 μM S1P)” value was 117%.

In the case of `CCCOc1nc(CN2CCCOCC2)nc2oc(-c3cc(F)cc(F)c3)nc12` [Example 26], the “% Activation (Edg-1 receptor activation in percent of the activation by 10 μM S1P)” value is 123%.

With `CCCOc1nc(CN2CCOCC2)nc2oc(-c3cccc(Cl)c3)nc12` [Example 27], the “% Activation (Edg-1 receptor activation in percent of the activation by 10 μM S1P)” value amounted to 124%.

As for `CCCOc1nc(CN2CCC(F)(F)CC2)nc2oc(-c3cccc(Cl)c3)nc12` [Example 28], the “% Activation (Edg-1 receptor activation in percent of the activation by 10 μM S1P)” value was found to be 102%.

With `CCCOc1nc(CN2CCCOCC2)nc2oc(-c3cccc(Cl)c3)nc12` [Example 29], the “% Activation (Edg-1 receptor activation in percent of the activation by 10 μM S1P)” value is 118%.

Take `CCCOc1nc(CN2CCOCC2)nc2oc(-c3cccc(F)c3)nc12` [Example 30]: the “% Activation (Edg-1 receptor activation in percent of the activation by 10 μM S1P)” value is 114%.

For `FCCCOc1nc(CN2CCOCC2)nc2oc(-c3cccc(F)c3)nc12` [Example 31], the “% Activation (Edg-1 receptor activation in percent of the activation by 10 μM S1P)” value turned out to be 59%.

Take `FCCOc1nc(CN2CCOCC2)nc2oc(-c3cccc(F)c3)nc12` [Example 32]: the “% Activation (Edg-1 receptor activation in percent of the activation by 10 μM S1P)” value is 42%.

Consider `CCCOc1nc(CN2CCC(F)(F)CC2)nc2oc(-c3cccc(F)c3)nc12` [Example 33], for which the “% Activation (Edg-1 receptor activation in percent of the activation by 10 μM S1P)” value was 93%.

On to `CCCOc1nc(CN2CCCOCC2)nc2oc(-c3cccc(F)c3)nc12` [Example 34], for which the “% Activation (Edg-1 receptor activation in percent of the activation by 10 μM S1P)” value was found to be 90%.

Consider `CCCOc1nc(CN2CCOCC2)nc2oc(-c3cccc(OC)c3)nc12` [Example 35], for which the “% Activation (Edg-1 receptor activation in percent of the activation by 10 μM S1P)” value worked out at 119%.

Staying with this test, now noted: example compound at 10 μM; relative to 10 μM S1P; GTP-γ-S SPA, human Edg-1 membranes; read-out: % Activation (Edg-1 receptor activation in percent of the activation by 10 μM S1P).
Take `CCCOc1nc(CN2CCOCC2)nc2oc(-c3cc(F)ccc3Cl)nc12` [Example 1, 2-(2-Chloro-5-fluoro-phenyl)-5-morpholin-4-ylmethyl-7-propoxy-oxazolo[5,4-d]pyrimidine]: the activation at 10 µM came out at 117%.

For the molecule `CCCOc1nc(CN2CCOCC2)nc2oc(-c3ccco3)nc12` [Example 2, 2-Furan-2-yl-5-morpholin-4-ylmethyl-7-propoxy-oxazolo[5,4-d]pyrimidine], the activation at 10 µM was determined as 80%.

As for `CCCOc1nc(CN2CCOCC2)nc2oc(-c3ccc(Br)o3)nc12` [Example 3, 2-(5-Bromo-furan-2-yl)-5-morpholin-4-ylmethyl-7-propoxy-oxazolo[5,4-d]pyrimidine], the activation at 10 µM came to 113%.

Regarding `CCCOc1nc(CN2CCOCC2)nc2oc(-c3cccc(O)c3)nc12` [Example 4, 3-(5-Morpholin-4-ylmethyl-7-propoxy-oxazolo[5,4-d]pyrimidin-2-yl)-phenol], the activation at 10 µM came to 105%.

On to `CCCOc1nc(Cc2ccc(Cl)cc2)nc2oc(-c3cccc(F)c3)nc12` [Example 5, 5-(4-Chloro-benzyl)-2-(3-fluoro-phenyl)-7-propoxy-oxazolo[5,4-d]pyrimidine], for which the activation at 10 µM stood at 98%.

Take `CCCOc1nc(CCc2ccc(OC)cc2)nc2oc(-c3cccc(C)c3)nc12` [Example 8, 5-[2-(4-methoxy-phenyl)-ethyl]-2-(3-methyl-phenyl)-7-propoxy-oxazolo[5,4-d]pyrimidine]: the activation at 10 µM was found to be 51%.

As to `Cc1cccc(-c2nc3c(OCC4CC4)nc(CC(C)(C)c4ccccc4)nc3o2)c1` [Example 9, 7-Cyclopropylmethoxy-5-(2-methyl-2-phenyl-propyl)-2-(3-methyl-phenyl)-oxazolo[5,4-d]pyrimidine], the activation at 10 µM was found to be 37%.

Turning to `CCCOc1nc(C2(c3ccc(Cl)cc3)CC2)nc2oc(-c3cccc(C)c3)nc12` [Example 10, 5-[1-(4-Chloro-phenyl]-cyclopropyl]-7-propoxy-2-(3-methyl-phenyl)-oxazolo[5,4-d]pyrimidine], the activation at 10 µM was 66%.

Take `CCCOc1nc(Cc2ccc(Cl)c(Cl)c2)nc2oc(-c3cccc(C)c3)nc12` [Example 11, 5-(3,4-Dichloro-benzyl)-7-propoxy-2-(3-methyl-phenyl)-oxazolo[5,4-d]pyrimidine]: the activation at 10 µM amounted to 39%.

Consider `CCCOc1nc(Cc2ccc(C(F)(F)F)cc2)nc2oc(-c3cccc(F)c3)nc12` [Example 12, 2-(3-Fluoro-phenyl)-7-propoxy-5-(4-trifluoromethyl-benzyl)-oxazolo[5,4-d]pyrimidine], for which the activation at 10 µM came out at 65%.

As to `CCCOc1nc(C(C)c2ccccc2)nc2oc(-c3cccc(C)c3)nc12` (centres unmarked) [Example 13, 5-(1-Phenyl-ethyl)-7-propoxy-2-(3-methyl-phenyl)-oxazolo[5,4-d]pyrimidine], the activation at 10 µM is 119%.

As to `CCOc1nc(C(C)c2ccccc2)nc2oc(-c3cccc(F)c3)nc12` (centres unmarked) [Example 15, 7-ethoxy-2-(3-fluoro-phenyl)-5-(1-phenyl-ethyl)-oxazolo[5,4-d]pyrimidine], the activation at 10 µM is 104%.

As to `CCCOc1nc(Cc2ccc(Cl)cc2)nc2oc(-c3cc(C)c(O)c(C)c3)nc12` [Example 17, 4-[5-(4-Chloro-benzyl)-7-propoxy-oxazolo[5,4-d]pyrimidin-2-yl]-2,6-dimethyl-phenol], the activation at 10 µM came to 74%.

As for `CCCOc1nc(Cc2ccc(Cl)cc2)nc2oc(-c3cc(C)c(OCC(O)CO)c(C)c3)nc12` (centres unmarked) [Example 18, 3-{4-[5-(4-Chloro-benzyl)-7-propoxy-oxazolo[5,4-d]pyrimidin-2-yl]-2,6-dimethyl-phenoxy}-propane-1,2-diol], the activation at 10 µM was determined as 128%.

`CCCOc1nc(Cc2ccc(Cl)cc2)nc2oc(-c3cc(C)c(OCCO)c(C)c3)nc12` [Example 19, 2-{4-[5-(4-Chloro-benzyl)-7-propoxy-oxazolo[5,4-d]pyrimidin-2-yl]-2,6-dimethyl-phenoxy}-ethanol]: the activation at 10 µM turned out to be 102%.

Regarding `CCCOc1nc(Cc2ccc(Cl)cc2)nc2oc(-c3cc(C)c(OCC(O)CN)c(C)c3)nc12` (centres unmarked) [Example 20, 1-Amino-3-{4-[5-(4-chloro-benzyl)-7-propoxy-oxazolo[5,4-d]pyrimidin-2-yl]-2,6-dimethyl-phenoxy}-propan-2-ol], the activation at 10 µM stood at 299%.

With `CCCOc1nc(Cc2ccc(Cl)cc2)nc2oc(-c3cccc(N)c3)nc12` [Example 21, 3-[5-(4-Chloro-benzyl)-7-propoxy-oxazolo[5,4-d]pyrimidin-2-yl]-phenylamine], the activation at 10 µM stood at 71%.
